The target of assay [1] is Calcium/calmodulin-dependent protein kinase type II subunit gamma (Homo sapiens) (UniProt Q13555). Briefly: Inhibition of CaMK2g Lys2 labeling site in human Huh-7 cell lysate at 1 uM by KiNativ Profiling analysis relative to control. The format is subcellular.
Assay [2] concerns the target T1, Dual specificity mitogen-activated protein kinase kinase 6 (Homo sapiens) (UniProt P52564).
T1 sequence (whole entry): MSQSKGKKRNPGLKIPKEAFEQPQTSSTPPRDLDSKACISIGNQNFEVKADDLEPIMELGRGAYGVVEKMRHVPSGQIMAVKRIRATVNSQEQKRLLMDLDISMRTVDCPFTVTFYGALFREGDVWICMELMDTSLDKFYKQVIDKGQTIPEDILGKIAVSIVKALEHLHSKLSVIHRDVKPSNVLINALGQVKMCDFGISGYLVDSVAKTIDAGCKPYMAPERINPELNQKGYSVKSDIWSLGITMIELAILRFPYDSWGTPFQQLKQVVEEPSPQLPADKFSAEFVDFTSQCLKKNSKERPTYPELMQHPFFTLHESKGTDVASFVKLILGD
Briefly: Inhibition of MAP2K6 Lys2 labeling site in human Huh-7 cells at 1 uM by KiNativ Profiling analysis relative to control. It counts as cell-based.

The target in assay [3] is Wee1-like protein kinase (Homo sapiens) (UniProt P30291). Briefly: Inhibition of Wee1 Lys2 labeling site in human Huh-7 cell lysate at 1 uM by KiNativ Profiling analysis relative to control. The format is subcellular.
For assay [4], the target named is Serine/threonine-protein kinase SMG1 (Homo sapiens) (UniProt Q96Q15). Nature of the assay: Inhibition of SMG1 ATP labeling site in human Huh-7 cell lysate at 1 uM by KiNativ Profiling analysis relative to control. The format is subcellular.
A further assay deals with Ephrin type-A receptor 2 (Homo sapiens, UniProt P29317). Nature of the assay: Inhibition of EphA2 ACT labeling site in human Huh-7 cell lysate at 1 uM by KiNativ Profiling analysis relative to control. It counts as subcellular.
Ephrin type-A receptor 2, sequence (P29317 whole entry): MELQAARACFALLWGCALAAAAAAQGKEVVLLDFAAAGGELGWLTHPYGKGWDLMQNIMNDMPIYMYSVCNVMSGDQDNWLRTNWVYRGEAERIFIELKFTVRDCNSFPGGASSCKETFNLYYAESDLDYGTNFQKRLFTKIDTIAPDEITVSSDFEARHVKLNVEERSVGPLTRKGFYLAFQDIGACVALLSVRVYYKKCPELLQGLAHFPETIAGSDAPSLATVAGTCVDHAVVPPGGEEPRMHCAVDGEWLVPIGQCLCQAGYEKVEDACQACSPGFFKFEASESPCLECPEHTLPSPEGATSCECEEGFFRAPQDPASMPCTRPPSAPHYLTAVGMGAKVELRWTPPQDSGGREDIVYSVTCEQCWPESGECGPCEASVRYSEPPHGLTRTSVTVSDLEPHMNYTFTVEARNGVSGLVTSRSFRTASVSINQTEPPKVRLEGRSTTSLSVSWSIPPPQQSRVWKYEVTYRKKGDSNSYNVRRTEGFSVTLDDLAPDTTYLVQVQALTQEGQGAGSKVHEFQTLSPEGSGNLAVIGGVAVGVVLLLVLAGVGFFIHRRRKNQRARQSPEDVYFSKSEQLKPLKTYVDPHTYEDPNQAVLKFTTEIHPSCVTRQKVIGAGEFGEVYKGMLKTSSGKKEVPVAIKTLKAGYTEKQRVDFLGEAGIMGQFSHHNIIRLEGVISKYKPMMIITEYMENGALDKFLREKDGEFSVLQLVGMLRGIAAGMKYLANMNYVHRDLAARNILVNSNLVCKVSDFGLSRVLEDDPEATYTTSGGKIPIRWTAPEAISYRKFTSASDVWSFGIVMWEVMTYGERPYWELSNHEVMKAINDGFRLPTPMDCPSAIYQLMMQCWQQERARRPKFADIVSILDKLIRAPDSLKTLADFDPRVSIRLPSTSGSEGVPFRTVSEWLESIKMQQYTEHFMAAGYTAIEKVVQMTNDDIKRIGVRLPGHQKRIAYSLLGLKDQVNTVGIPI
Assay [5] has as its target Serine/threonine-protein kinase N2 (Homo sapiens) (UniProt Q16513). Briefly: Inhibition of PKN2 Lys2 labeling site in human Huh-7 cell lysate at 1 uM by KiNativ Profiling analysis relative to control. It counts as subcellular.
The target of assay [6] is Serine/threonine-protein kinase MARK2 (Homo sapiens) (UniProt Q7KZI7). Briefly: Inhibition of MARK2 Lys2 labeling site harbouring EVAIKIIDKTQLNPTSLQK in human Huh-7 cells at 1 uM by KiNativ Profiling analysis relative to control. It counts as cell-based.
Assay [7] concerns the target T2, Interleukin-1 receptor-associated kinase 4 (Homo sapiens) (UniProt Q9NWZ3).
T2 sequence (whole entry): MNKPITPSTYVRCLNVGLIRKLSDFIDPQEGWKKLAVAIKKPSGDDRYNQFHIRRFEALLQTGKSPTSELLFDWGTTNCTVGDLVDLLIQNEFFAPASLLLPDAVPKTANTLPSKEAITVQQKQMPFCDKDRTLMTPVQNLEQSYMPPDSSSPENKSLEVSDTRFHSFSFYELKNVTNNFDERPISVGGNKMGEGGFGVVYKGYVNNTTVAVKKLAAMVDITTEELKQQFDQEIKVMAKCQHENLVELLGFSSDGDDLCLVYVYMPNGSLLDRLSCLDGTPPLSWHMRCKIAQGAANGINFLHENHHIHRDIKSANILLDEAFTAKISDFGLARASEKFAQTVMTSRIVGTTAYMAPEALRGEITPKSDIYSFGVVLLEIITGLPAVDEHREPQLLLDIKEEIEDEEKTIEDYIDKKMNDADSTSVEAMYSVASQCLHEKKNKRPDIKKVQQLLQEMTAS
Nature of the assay: Inhibition of IRAK4 (unknown origin) at 1 uM by Ambit Kinomescan binding assay relative to control.

Assay [8] has as its target Serine/threonine-protein kinase OSR1 (Homo sapiens) (UniProt O95747). Nature of the assay: Inhibition of OSR1 (unknown origin) at 1 uM by Ambit Kinomescan binding assay relative to control; values are per cent of control.
Assay [9] concerns the target Serine/threonine-protein kinase 4 (Homo sapiens) (UniProt Q13043). Briefly: Inhibition of MST1 Lys1 labeling site harbouring ETGQIVAIKQVPVESDLQEIIK in human A-375 cells at 5 uM by KiNativ Profiling analysis relative to control.
The subject of assay [10] is Tyrosine-protein kinase ABL1 (Homo sapiens), P00519 [E255K]. Nature of the assay: Inhibition of phosphorylated ABL1 E255K mutant (unknown origin) at 1 uM by Ambit Kinomescan binding assay relative to control; values are per cent of control.
Assay [11] has as its target Tyrosine-protein kinase ABL2 (Homo sapiens, UniProt P42684). Nature of the assay: Inhibition of ARG Lys1 labeling site in human A-375 cells at 0.05 uM by KiNativ Profiling analysis relative to control. The format is cell-based.
Assay [12] concerns the target Serine/threonine-protein kinase DCLK1 (Homo sapiens) (UniProt O15075). Nature of the assay: Inhibition of DCAMKL1 (unknown origin) at 10 uM by Ambit Kinomescan binding assay.
The target in assay [13] is Fibroblast growth factor receptor 2 (Homo sapiens) (UniProt P21802). Nature of the assay: Inhibition of FGFR2 (unknown origin) at 10 uM by Ambit Kinomescan binding assay relative to control; values are per cent of control.
Fibroblast growth factor receptor 2 (Homo sapiens), sequence (P21802 22-821 limits assumed): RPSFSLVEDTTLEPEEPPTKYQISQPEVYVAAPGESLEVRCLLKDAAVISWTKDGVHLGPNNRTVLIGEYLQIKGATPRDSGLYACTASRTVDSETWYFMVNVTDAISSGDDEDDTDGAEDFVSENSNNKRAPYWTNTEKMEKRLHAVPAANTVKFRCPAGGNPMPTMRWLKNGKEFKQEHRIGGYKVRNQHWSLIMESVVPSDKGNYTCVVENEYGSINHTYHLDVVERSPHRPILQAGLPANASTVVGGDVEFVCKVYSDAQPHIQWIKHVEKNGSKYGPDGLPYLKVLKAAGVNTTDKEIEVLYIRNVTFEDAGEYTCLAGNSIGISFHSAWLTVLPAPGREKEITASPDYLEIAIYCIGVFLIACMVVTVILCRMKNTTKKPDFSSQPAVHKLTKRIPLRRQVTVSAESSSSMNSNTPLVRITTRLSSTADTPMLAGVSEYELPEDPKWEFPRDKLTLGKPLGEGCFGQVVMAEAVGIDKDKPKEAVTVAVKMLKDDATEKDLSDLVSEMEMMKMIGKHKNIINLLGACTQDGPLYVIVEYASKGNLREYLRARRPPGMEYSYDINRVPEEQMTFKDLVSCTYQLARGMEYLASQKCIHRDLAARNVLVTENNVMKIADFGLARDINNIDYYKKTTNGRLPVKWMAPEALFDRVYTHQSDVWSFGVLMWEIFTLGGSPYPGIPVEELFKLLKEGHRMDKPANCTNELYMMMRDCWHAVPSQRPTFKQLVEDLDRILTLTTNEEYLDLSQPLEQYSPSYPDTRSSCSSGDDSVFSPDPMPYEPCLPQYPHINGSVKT
Assay [14] has as its target Serine/threonine-protein kinase Chk2 (Homo sapiens) (UniProt O96017). Briefly: Inhibition of CHEK2 (unknown origin) at 10 uM by Ambit Kinomescan binding assay.
Assay [15] concerns the target Cyclin-dependent kinase 1 (Homo sapiens) (UniProt P06493). Nature of the assay: Inhibition of CDC2 K2 labeling site harbouring DLKPQNLLIDDKGTIK in human Huh-7 cells at 1 uM by KiNativ Profiling analysis relative to control. The format is cell-based.
The target in assay [16] is Rho-associated protein kinase 1 (Homo sapiens) (UniProt Q13464). Nature of the assay: Inhibition of ROCK1 in human Huh-7 cells at 10 uM by KiNativ Profiling analysis relative to control. It counts as cell-based.
Assay [17] deals with Serine/threonine-protein kinase pim-3 (Homo sapiens) (UniProt Q86V86). Briefly: Inhibition of PIM3 (unknown origin) at 10 uM by Ambit Kinomescan binding assay.
The target in assay [18] is T2, Interleukin-1 receptor-associated kinase 4 (Homo sapiens). Nature of the assay: Inhibition of IRAK4 K2 labeling site in human Huh-7 cells at 1 uM by KiNativ Profiling analysis relative to control. It counts as cell-based.
For assay [19], the target named is RAC-gamma serine/threonine-protein kinase (Homo sapiens) (UniProt Q9Y243). Nature of the assay: Inhibition of AKT3 (unknown origin) at 10 uM by Ambit Kinomescan binding assay.
RAC-gamma serine/threonine-protein kinase (Homo sapiens), sequence (Q9Y243 whole entry): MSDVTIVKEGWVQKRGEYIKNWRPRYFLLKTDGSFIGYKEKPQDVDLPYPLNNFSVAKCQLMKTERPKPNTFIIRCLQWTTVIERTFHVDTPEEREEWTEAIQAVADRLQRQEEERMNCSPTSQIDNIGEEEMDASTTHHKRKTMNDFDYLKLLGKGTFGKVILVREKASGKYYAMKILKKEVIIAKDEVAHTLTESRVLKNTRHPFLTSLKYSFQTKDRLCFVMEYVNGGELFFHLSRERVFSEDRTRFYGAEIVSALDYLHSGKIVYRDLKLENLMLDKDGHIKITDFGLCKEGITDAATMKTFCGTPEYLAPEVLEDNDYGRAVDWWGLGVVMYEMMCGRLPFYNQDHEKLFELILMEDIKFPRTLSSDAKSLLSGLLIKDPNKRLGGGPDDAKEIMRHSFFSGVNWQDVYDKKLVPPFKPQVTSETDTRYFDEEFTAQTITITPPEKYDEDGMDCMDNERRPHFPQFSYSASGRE

Calls of active or inactive are those of the source. The rule behind the calls is not given here.

Serine/threonine-protein kinase 4 (Homo sapiens), sequence (Q13043 whole entry, looked up): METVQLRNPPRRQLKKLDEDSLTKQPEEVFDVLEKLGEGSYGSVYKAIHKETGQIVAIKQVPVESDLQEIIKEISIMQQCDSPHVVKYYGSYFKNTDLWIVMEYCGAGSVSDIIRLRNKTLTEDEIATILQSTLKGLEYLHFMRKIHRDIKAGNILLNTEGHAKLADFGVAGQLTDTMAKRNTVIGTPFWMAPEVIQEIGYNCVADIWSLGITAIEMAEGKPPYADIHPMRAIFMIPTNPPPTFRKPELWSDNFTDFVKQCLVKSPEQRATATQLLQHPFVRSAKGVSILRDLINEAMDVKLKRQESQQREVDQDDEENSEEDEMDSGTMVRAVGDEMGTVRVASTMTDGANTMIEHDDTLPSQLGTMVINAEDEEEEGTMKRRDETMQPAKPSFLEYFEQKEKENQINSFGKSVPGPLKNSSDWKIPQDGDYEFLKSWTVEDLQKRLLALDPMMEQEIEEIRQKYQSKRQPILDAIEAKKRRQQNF
Calcium/calmodulin-dependent protein kinase type II subunit gamma (Homo sapiens), sequence (Q13555 whole entry): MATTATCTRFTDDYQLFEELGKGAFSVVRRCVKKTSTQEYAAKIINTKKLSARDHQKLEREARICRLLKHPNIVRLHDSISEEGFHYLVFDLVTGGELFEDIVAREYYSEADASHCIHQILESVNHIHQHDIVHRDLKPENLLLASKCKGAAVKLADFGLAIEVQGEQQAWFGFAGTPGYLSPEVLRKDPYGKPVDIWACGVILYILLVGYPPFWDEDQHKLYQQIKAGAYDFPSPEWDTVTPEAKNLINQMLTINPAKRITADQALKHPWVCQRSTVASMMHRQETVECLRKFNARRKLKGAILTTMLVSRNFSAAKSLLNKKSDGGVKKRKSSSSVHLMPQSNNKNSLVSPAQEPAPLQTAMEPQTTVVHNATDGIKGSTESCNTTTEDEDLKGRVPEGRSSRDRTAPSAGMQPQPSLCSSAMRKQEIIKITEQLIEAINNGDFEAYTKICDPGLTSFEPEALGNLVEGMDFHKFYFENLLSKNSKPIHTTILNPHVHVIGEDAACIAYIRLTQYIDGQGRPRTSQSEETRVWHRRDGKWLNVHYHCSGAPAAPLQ
Serine/threonine-protein kinase Chk2 (Homo sapiens), sequence (O96017 whole entry): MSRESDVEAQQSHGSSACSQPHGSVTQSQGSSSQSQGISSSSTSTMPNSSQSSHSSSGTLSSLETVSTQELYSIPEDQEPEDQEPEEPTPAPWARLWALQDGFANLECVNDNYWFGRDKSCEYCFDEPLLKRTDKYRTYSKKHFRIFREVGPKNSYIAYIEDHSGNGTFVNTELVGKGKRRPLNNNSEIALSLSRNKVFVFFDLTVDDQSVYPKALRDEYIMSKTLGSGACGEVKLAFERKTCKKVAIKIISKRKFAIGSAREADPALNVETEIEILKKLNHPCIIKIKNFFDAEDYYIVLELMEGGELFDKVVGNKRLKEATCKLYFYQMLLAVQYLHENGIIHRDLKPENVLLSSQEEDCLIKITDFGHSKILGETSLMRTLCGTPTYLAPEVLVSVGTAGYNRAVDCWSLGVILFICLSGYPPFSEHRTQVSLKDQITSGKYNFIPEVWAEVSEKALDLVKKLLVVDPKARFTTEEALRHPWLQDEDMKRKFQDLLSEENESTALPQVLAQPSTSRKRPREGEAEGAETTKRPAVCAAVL
Tyrosine-protein kinase ABL1 (Homo sapiens), P00519 [E255K], sequence (P00519 whole entry E255K): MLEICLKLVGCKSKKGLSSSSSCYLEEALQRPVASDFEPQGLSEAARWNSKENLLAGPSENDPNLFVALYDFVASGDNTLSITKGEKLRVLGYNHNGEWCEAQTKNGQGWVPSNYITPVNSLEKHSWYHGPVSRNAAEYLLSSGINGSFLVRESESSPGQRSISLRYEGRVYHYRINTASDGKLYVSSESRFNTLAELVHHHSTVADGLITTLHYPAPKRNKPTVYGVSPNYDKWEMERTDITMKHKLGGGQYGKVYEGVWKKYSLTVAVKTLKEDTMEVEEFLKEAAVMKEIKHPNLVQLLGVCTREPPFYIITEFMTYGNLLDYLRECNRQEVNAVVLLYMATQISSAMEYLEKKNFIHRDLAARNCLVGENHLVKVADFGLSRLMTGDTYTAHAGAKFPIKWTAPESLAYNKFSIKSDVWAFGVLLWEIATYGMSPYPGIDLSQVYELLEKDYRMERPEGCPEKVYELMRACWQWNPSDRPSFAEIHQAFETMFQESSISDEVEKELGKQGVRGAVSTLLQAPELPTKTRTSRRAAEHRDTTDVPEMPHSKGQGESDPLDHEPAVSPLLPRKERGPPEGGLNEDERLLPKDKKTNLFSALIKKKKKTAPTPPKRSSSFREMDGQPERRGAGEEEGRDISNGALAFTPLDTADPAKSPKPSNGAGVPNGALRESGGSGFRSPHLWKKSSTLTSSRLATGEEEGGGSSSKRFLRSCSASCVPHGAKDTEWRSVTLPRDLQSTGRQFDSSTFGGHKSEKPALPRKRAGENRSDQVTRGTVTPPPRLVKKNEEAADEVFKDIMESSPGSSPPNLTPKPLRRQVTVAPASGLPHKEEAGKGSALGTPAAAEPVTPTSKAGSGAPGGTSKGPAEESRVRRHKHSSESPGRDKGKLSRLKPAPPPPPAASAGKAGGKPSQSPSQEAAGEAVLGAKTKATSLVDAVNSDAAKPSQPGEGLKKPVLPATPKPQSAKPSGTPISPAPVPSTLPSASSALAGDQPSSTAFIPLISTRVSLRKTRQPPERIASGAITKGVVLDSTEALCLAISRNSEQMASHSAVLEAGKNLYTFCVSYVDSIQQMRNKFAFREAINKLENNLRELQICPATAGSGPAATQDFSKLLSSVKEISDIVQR

What is called inhibition is the drop in the measured response relative to a control, in per cent. Turning to `CNc1cc(Oc2cc(C(=O)Nc3cc(N4CCN(C)CC4)cc(C(F)(F)F)c3)ccc2C)ncn1`, the inhibition in [1] is 0.7%; in assay [2] it was -1.5%; in assay [3], -4.1%; in assay [4], 4.2%; on Ephrin type-A receptor 2 it was 25.1%; in assay [5] it was -8.4%. Besides, the inhibition in assay [6] was determined as 11.3%.

One may read the residual activity as what remains of the control signal, in per cent. Higher therefore signals much activity left. Take `CCN1CCN(Cc2ccc(NC(=O)c3ccc(C)c(/C=C/c4cnc5[nH]ccc5c4OC)c3)cc2C(F)(F)F)CC1`: the figures for the inhibition in assay [7] and in assay [9] were 100% and 27.6%, respectively. The residual activity in assay [8] is 100%. In assay [10], this molecule returned a percent of control of 0.85%.

As for `CCN1CCN(Cc2ccc(NC(=O)c3ccc(C)c(Oc4ccnc5[nH]ccc45)c3)cc2C(F)(F)F)CC1`, the inhibition in assay [11] was 84.8%; in assay [15], 7.9%; in assay [16], 7.5%; in assay [18], -9.1%. Besides, the inhibition result in assay [12], in assay [14], in assay [17] and in assay [19] was “inactive” in each case. Moreover, in [13], the percent of control was found to be 1.4%.

These data come from ChEMBL document CHEMBL5696442, “Discovery of type II inhibitors of TGFβ-activated kinase 1 (TAK1) and mitogen-activated protein kinase kinase kinase kinase 2 (MAP4K2)” (J Med Chem, 2015).
